The NIST ThermoML archive (doi:10.1021/acs.jced.5b00242)
± gives the expanded uncertainty stated by the source.

Columns and labels:
[1] = xn = mol fraction of the nth substance listed; settings: 101 kPa, Liquid; for viscosity: Stabinger Viscometer; for mass density: Vibrating tube method
[2] = refractive index (Na D-line) (dimensionless); xn = mol fraction of the nth substance listed; settings: 101 kPa, Liquid, Standard Abbe refractometry

CCn1cc[n+](C)c1.C[C@H](N)C(=O)[O-] [1-ethyl-3-methylimidazolium L-alaninate] + CCn1cc[n+](C)c1.N#C[C-](C#N)C#N
Settings | mass density, [1] [kg/m3] | refractive index, [2] | viscosity, [1] [mPa·s]
293.15 K, x2 = 0 | 1126.3 ± 17 | 1.51366 ± 0.0011 | 382.06 ± 28
293.15 K, x2 = 0.2506 | 1113.7 ± 16 | 1.51476 ± 0.0015 | 146.57 ± 8.3
293.15 K, x2 = 0.5 | 1102.2 ± 16 | 1.51409 ± 0.00078 | 78.6 ± 2.4
293.15 K, x2 = 0.7499 | 1092.9 ± 15 | 1.51367 ± 0.00086 | 31.55 ± 2
298.15 K, x2 = 0 | 1123 ± 17 | 1.51223 ± 0.0011 | 263.98 ± 16
298.15 K, x2 = 0.2506 | 1110.4 ± 16 | 1.5133 ± 0.0015 | 107.2 ± 5.5
298.15 K, x2 = 0.5 | 1098.9 ± 16 | 1.51258 ± 0.00078 | 60.26 ± 1.6
298.15 K, x2 = 0.7499 | 1089.3 ± 15 | 1.5121 ± 0.00086 | 25.68 ± 1.6
303.15 K, x2 = 0 | 1119.8 ± 17 | 1.51081 ± 0.0011 | 187.79 ± 9.8
303.15 K, x2 = 0.2506 | 1107.1 ± 16 | 1.51184 ± 0.0015 | 80.47 ± 3.8
303.15 K, x2 = 0.5 | 1095.6 ± 16 | 1.51107 ± 0.00078 | 46.89 ± 1.3
303.15 K, x2 = 0.7499 | 1085.9 ± 15 | 1.51053 ± 0.00086 | 21.18 ± 1.3
308.15 K, x2 = 0 | 1116.6 ± 17 | 1.50937 ± 0.0011 | 137.47 ± 6.2
308.15 K, x2 = 0.2506 | 1104 ± 16 | 1.51038 ± 0.0015 | 61.83 ± 2.8
308.15 K, x2 = 0.5 | 1092.3 ± 16 | 1.5095 ± 0.00078 | 37.29 ± 1
308.15 K, x2 = 0.7499 | 1082.6 ± 15 | 1.50893 ± 0.00086 | 17.74 ± 1.1
313.15 K, x2 = 0 | 1113.5 ± 17 | 1.50793 ± 0.0011 | 103.54 ± 4.1
313.15 K, x2 = 0.2506 | 1100.8 ± 16 | 1.50888 ± 0.0015 | 49.16 ± 2.3
313.15 K, x2 = 0.5 | 1089.1 ± 16 | 1.50796 ± 0.00078 | 30.22 ± 0.84
313.15 K, x2 = 0.7499 | 1079.2 ± 15 | 1.50731 ± 0.00086 | 14.83 ± 0.92
318.15 K, x2 = 0 | 1110.5 ± 17 | 1.50651 ± 0.0011 | 79.34 ± 2.8
318.15 K, x2 = 0.2506 | 1097.8 ± 16 | 1.50736 ± 0.0015 | 38.96 ± 1.8
318.15 K, x2 = 0.5 | 1085.9 ± 16 | 1.50643 ± 0.00078 | 24.9 ± 0.69
318.15 K, x2 = 0.7499 | 1075.9 ± 15 | 1.50568 ± 0.00086 | 12.94 ± 0.8
323.15 K, x2 = 0 | 1107.5 ± 17 | 1.50505 ± 0.0011 | 62.21 ± 2
323.15 K, x2 = 0.2506 | 1094.6 ± 16 | 1.5059 ± 0.0015 | 31.75 ± 1.5
323.15 K, x2 = 0.5 | 1082.7 ± 15 | 1.50488 ± 0.00078 | 20.83 ± 0.58
323.15 K, x2 = 0.7499 | 1072.7 ± 15 | 1.50401 ± 0.00086 | 11.23 ± 0.7
328.15 K, x2 = 0 | 1104.4 ± 17 | 1.50358 ± 0.0011 | 49.69 ± 1.6
328.15 K, x2 = 0.2506 | 1091.5 ± 16 | 1.50436 ± 0.0015 | 26.27 ± 1.2
328.15 K, x2 = 0.5 | 1079.5 ± 15 | 1.50338 ± 0.00078 | 17.64 ± 0.49
328.15 K, x2 = 0.7499 | 1069.4 ± 15 | 1.50244 ± 0.00086 | 9.84 ± 0.61
333.15 K, x2 = 0 | 1101.3 ± 16 | 1.50217 ± 0.0011 | 40.5 ± 1.3
333.15 K, x2 = 0.2506 | 1088.4 ± 16 | 1.50293 ± 0.0015 | 22.29 ± 1
333.15 K, x2 = 0.5 | 1076.3 ± 15 | 1.50191 ± 0.00078 | 15.08 ± 0.42
333.15 K, x2 = 0.7499 | 1066.1 ± 15 | 1.50085 ± 0.00086 | 8.51 ± 0.53
338.15 K, x2 = 0 | 1098.3 ± 16 | 1.50074 ± 0.0011 | 33.22 ± 1.1
338.15 K, x2 = 0.2506 | 1085.3 ± 16 | 1.50148 ± 0.0015 | 18.7 ± 0.86
338.15 K, x2 = 0.5 | 1073.1 ± 15 | 1.50039 ± 0.00078 | 13.09 ± 0.36
338.15 K, x2 = 0.7499 | 1062.9 ± 15 | 1.49926 ± 0.00086 | 7.74 ± 0.48
343.15 K, x2 = 0 | 1095.2 ± 16 | 1.49932 ± 0.0011 | 27.72 ± 0.91
343.15 K, x2 = 0.2506 | 1082.2 ± 16 | 1.49997 ± 0.0015 | 16.04 ± 0.74
343.15 K, x2 = 0.5 | 1069.9 ± 15 | 1.49888 ± 0.00078 | 11.45 ± 0.32
343.15 K, x2 = 0.7499 | 1059.6 ± 15 | 1.49771 ± 0.00086 | 6.93 ± 0.43
348.15 K, x2 = 0 | 1092.1 ± 16 | 1.49795 ± 0.0011 | 23.38 ± 0.77
348.15 K, x2 = 0.2506 | 1079.1 ± 16 | 1.49851 ± 0.0015 | 13.89 ± 0.64
348.15 K, x2 = 0.5 | 1066.6 ± 15 | 1.49739 ± 0.00078 | 10.1 ± 0.28
348.15 K, x2 = 0.7499 | 1056.3 ± 15 | 1.49613 ± 0.00086 | 6.26 ± 0.39
353.15 K, x2 = 0 | 1088.9 ± 16 | 1.49656 ± 0.0011 | 20.03 ± 0.66
353.15 K, x2 = 0.2506 | 1075.9 ± 16 | 1.49704 ± 0.0015 | 12.28 ± 0.56
353.15 K, x2 = 0.5 | 1063.1 ± 15 | 1.49589 ± 0.00078 | 8.93 ± 0.25
353.15 K, x2 = 0.7499 | 1052.9 ± 15 | 1.49456 ± 0.00086 | 5.45 ± 0.34
